Drug metabolism and Ratio data for one compound are collected here from ChEMBL document CHEMBL4602653, “Neuraminidase-triggered activation of prodrug-type substrate of 4-nitroaniline” (Bioorg Med Chem Lett, 2020).

What all share (type): ADME
What all share (conditions): isolated protein, 6000 µM

Series [1] in a line: Drug metabolism assessed as Clostridium perfringens neuraminidase-mediated drug decomposition resulting in formation of alpha-H3-(equitorial)-N-acetyl-neuraminic acid at 2.74 ppm at 6 mM measured over 10 hrs by 1H-NMR analysis.
Series [2] can be described thus: Drug metabolism assessed as Clostridium perfringens neuraminidase-mediated drug decomposition resulting in formation of alpha-H3-(axial)-N-acetyl-neuraminic acid at 1.62 ppm at 6 mM measured over 10 hrs by 1H-NMR analysis.
Series [3] can be described thus: Drug metabolism assessed as Clostridium perfringens neuraminidase-mediated drug decomposition resulting in formation of beta-H3-(equitorial)-N-acetyl-neuraminic acid at 2.21 ppm at 6 mM measured over 10 hrs by 1H-NMR analysis.
Series [4] can be described thus: Drug metabolism assessed as Clostridium perfringens neuraminidase-mediated drug decomposition resulting in formation of alpha-H3-(axial)-N-acetyl-neuraminic acid at 1.83 ppm at 6 mM measured over 10 hrs by 1H-NMR analysis.
Series [5] is described as follows: Drug metabolism assessed as Clostridium perfringens neuraminidase-mediated drug decomposition by measuring ratio of alpha-H3-(equitorial)-N-acetyl-neuraminic acid to beta-H3-(equitorial)-N-acetyl-neuraminic acid at 6 mM measured over 10 hrs by 1H-NMR analysis.
Series [6] is described as follows: Drug metabolism assessed as Clostridium perfringens neuraminidase-mediated drug decomposition by measuring ratio of alpha-H3-(axial)-N-acetyl-neuraminic acid to beta-H3-(axial)-N-acetyl-neuraminic acid at 6 mM measured over 10 hrs by 1H-NMR analysis.
The nature of series [7]: Drug metabolism assessed as Clostridium perfringens neuraminidase-mediated formation of para-quinone methide by measuring 4-hydroxy benzyl alcohol formation at 6.90 to 7.29 ppm at 6 mM measured after 10 hrs by 1H-NMR analysis.
The nature of series [8]: Drug metabolism assessed as Clostridium perfringens neuraminidase-mediated formation of free N-acetyl-neuraminic acid at 6 mM measured after 75 hrs by 1H-NMR analysis.

Turning to `CC(=O)N[C@H]1[C@H]([C@H](O)[C@H](O)CO)OC(Oc2ccc(COC(=O)Nc3ccc([N+](=O)[O-])cc3)cc2)(C(=O)O)C[C@@H]1O` (stereo partly drawn), the Drug metabolism result in series [1], in series [2], in series [3], in series [4], in series [7] and in series [8] was “Metabolite_Detected” each time. Further, the results for the Ratio in series [5] and in series [6] were 7.6 and 92.4, respectively.
